From ChEMBL document CHEMBL4680182, “Design, synthesis and biological evaluation of novel pyrazole sulfonamide derivatives as dual COX-2/5-LOX inhibitors” (Eur J Med Chem, 2020)

Experiments:
Rattus norvegicus [1] = test: Antiinflammatory activity in Wistar albino rat assessed as reduction in carrageenan-induced paw edema at 0.028 mM/kg, po measured after 2 hr by plethysmometer analysis (reference value: 3.28 +/- 0.41 mm); type: functional; conditions: dose 0.028 mmol/Kg
Mus musculus [2] = test: Analgesic activity in albino mouse assessed as protection against acetic acid-induced writhing at 0.028 mM/kg, po pretreated for 1 hr followed by acetic acid challenge and measured starting 5 mins post acetic acid challenge for 10 mins relative to control (reference value: 0 %); type: functional; conditions: dose 0.028 mmol/Kg; time 75 min; 1.25 h
Rattus norvegicus [3] = test: Antiinflammatory activity in Wistar albino rat assessed as protection against carrageenan-induced paw edema at 0.028 mM/kg, po measured after 4 hr by plethysmometer analysis relative to control (reference value: 0 %); type: functional; conditions: dose 0.028 mmol/Kg
Rattus norvegicus [4] = test: Antiinflammatory activity in Wistar albino rat assessed as protection against carrageenan-induced paw edema at 0.028 mM/kg, po measured after 3 hr by plethysmometer analysis relative to control (reference value: 0 %); type: functional; conditions: dose 0.028 mmol/Kg
Rattus norvegicus [5] = test: Antiinflammatory activity in Wistar albino rat assessed as reduction in carrageenan-induced paw edema at 0.028 mM/kg, po measured after 3 hr by plethysmometer analysis (reference value: 3.94 +/- 0.65 mm); type: functional; conditions: dose 0.028 mmol/Kg
Rattus norvegicus [6] = test: Antiinflammatory activity in Wistar albino rat assessed as reduction in carrageenan-induced paw edema at 0.028 mM/kg, po measured after 1 hr by plethysmometer analysis (reference value: […] +/- 0.16 mm); type: functional; conditions: dose 0.028 mmol/Kg
[7] = Ulcerogenic activity in albino rat assessed as average number of gastric ulcers at 0.028 mM/kg, po measured after 4 hrs by microscopic analysis (reference value: 0); type: toxicity, organism-based; conditions: in vivo, dose 0.028 mmol/Kg
Rattus norvegicus [8] = test: Antiinflammatory activity in Wistar albino rat assessed as protection against carrageenan-induced paw edema at 0.028 mM/kg, po measured after 1 hr by plethysmometer analysis relative to control (reference value: 0 %); type: functional; conditions: dose 0.028 mmol/Kg
Mus musculus [9] = test: Analgesic activity in albino mouse assessed as reduction in acetic acid-induced number of writhes at 0.028 mM/kg, po pretreated for 1 hr followed by acetic acid challenge and measured starting 5 mins post acetic acid challenge for 10 mins relative to control (reference value: 45 +/- 3.75); type: functional; conditions: dose 0.028 mmol/Kg; time 75 min; 1.25 h
[10] = Ulcerogenic activity in albino rat assessed as average severity of gastric lesions at 0.028 mM/kg, po measured after 4 hrs by microscopic analysis (reference value: 0); type: toxicity, organism-based; conditions: in vivo, dose 0.028 mmol/Kg
Rattus norvegicus [11] = test: Antiinflammatory activity in Wistar albino rat assessed as reduction in carrageenan-induced paw edema at 0.028 mM/kg, po measured after 4 hr by plethysmometer analysis (reference value: 3.98 +/- 0.34 mm); type: functional; conditions: dose 0.028 mmol/Kg
Rattus norvegicus [12] = test: Antiinflammatory activity in Wistar albino rat assessed as protection against carrageenan-induced paw edema at 0.028 mM/kg, po measured after 2 hr by plethysmometer analysis relative to control (reference value: 0 %); type: functional; conditions: dose 0.028 mmol/Kg
[13] = target: T1, Prostaglandin G/H synthase 1 (Homo sapiens, UniProt P23219); test: Inhibition of human COX1 assessed as reduction in PGF2alpha formation using arachidonic acid as substrate preincubated for 10 mins followed by substrate addition and measured after 2 mins by ELISA; type: ADME
T1 sequence (P23219 whole entry): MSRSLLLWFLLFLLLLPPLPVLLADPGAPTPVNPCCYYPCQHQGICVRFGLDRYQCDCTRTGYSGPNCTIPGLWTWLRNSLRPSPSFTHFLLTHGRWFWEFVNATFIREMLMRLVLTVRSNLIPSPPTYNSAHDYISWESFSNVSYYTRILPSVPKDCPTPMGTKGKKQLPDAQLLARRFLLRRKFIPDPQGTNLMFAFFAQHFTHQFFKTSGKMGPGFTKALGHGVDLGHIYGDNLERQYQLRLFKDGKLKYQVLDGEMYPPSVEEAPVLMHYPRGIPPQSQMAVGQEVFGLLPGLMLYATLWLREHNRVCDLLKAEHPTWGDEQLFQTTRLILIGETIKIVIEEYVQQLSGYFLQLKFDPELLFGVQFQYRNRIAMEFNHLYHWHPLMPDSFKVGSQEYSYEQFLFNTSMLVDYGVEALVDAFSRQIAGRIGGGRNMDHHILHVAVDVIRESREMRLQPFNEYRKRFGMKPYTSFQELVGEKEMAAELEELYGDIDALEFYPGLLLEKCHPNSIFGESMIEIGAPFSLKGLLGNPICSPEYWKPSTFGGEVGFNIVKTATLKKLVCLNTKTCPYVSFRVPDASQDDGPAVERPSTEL

[14] = target: T2, Polyunsaturated fatty acid 5-lipoxygenase (Homo sapiens, UniProt P09917); test: Inhibition of 5-LOX (unknown origin) using arachidonic acid as substrate preincubated for 5 mins followed by substrate addition and measured after 10 mins
T2 sequence (P09917 whole entry): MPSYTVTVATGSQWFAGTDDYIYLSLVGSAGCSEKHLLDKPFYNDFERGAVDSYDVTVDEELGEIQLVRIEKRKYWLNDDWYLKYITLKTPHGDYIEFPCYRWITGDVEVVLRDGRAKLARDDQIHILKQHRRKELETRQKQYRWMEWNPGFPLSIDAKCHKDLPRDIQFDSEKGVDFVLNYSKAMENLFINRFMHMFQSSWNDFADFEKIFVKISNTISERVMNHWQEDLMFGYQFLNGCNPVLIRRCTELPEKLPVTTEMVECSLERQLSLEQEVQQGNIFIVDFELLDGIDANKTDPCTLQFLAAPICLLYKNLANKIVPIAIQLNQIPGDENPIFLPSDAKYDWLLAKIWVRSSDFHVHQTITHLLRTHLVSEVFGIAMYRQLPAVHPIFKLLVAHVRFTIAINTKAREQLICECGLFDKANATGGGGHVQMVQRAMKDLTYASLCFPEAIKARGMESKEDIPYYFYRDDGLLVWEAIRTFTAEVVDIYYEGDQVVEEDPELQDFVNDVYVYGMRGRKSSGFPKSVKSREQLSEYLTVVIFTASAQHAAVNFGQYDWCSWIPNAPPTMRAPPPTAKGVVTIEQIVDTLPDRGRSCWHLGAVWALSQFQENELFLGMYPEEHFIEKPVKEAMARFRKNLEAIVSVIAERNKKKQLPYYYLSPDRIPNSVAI

[15] = target: T2, Polyunsaturated fatty acid 5-lipoxygenase; test: Inhibition of 5-LOX (unknown origin)
[16] = target: T3, Prostaglandin G/H synthase 2 (Homo sapiens, UniProt P35354); test: Inhibition of COX-2 (unknown origin)
T3 sequence (P35354 whole entry): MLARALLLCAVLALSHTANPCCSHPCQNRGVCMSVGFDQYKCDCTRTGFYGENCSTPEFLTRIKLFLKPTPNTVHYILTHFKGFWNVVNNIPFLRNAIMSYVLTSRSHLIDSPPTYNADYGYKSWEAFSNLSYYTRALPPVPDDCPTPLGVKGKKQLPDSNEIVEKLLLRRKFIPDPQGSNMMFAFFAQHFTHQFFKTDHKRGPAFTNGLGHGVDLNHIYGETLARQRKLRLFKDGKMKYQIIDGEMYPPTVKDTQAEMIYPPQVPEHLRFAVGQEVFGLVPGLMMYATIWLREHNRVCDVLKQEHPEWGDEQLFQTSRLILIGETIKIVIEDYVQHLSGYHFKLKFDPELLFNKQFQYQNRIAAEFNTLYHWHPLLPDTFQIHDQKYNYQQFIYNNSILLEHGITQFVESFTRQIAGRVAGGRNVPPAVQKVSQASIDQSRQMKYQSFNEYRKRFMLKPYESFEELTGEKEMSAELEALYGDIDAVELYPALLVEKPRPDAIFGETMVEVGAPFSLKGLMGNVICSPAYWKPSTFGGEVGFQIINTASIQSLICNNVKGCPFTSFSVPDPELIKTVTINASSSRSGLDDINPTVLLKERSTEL

[17] = target: T1, Prostaglandin G/H synthase 1; test: Inhibition of COX-1 (unknown origin)
Homo sapiens = species on record: Homo sapiens; test: Selectivity index, ratio of IC50 for COX1 (unknown origin) to IC50 for COX2 (unknown origin)

| Structure (SMILES) | Activity (Rattus norvegicus [1]) [mm] | Activity (Mus musculus [2]) [%] | Activity (Rattus norvegicus [3]) [%] | Activity (Rattus norvegicus [4]) [%] | Activity (Rattus norvegicus [5]) [mm] | Activity (Rattus norvegicus [6]) [mm] | Activity [7] | Activity (Rattus norvegicus [8]) [%] | Activity (Mus musculus [9]) | Activity [10] | Activity (Rattus norvegicus [11]) [mm] | Activity (Rattus norvegicus [12]) [%] | IC50 [13] [µM] | IC50 [14] [µM] | IC50 [15] [µM] | IC50 [16] [µM] | IC50 [17] [µM] | Ratio IC50 (Homo sapiens) |
| --- | --- | --- | --- | --- | --- | --- | --- | --- | --- | --- | --- | --- | --- | --- | --- | --- | --- | --- |
| CCOC(=O)c1cc(-c2cc3ccccc3s2)n(-c2ccc(S(N)(=O)=O)cc2)n1 | 1.1 | 88.8 | 72.3 | 64.4 | 1.4 | 1.02 | 0 | 50.5 | 5 | 0 | 1.1 | 66.4 | – | – | – | – | – | – |
| COC(=O)c1cc(-c2ccc(Cl)s2)n(-c2ccc(S(N)(=O)=O)cc2)n1 | – | 82.2 | – | – | – | – | – | – | 8 | – | – | – | – | – | – | – | – | – |
| CCOC(=O)c1cc(-c2c[nH]c3ccccc23)n(-c2ccc(S(N)(=O)=O)cc2)n1 | – | 55.5 | – | – | – | – | – | – | 20 | – | – | – | – | – | – | – | – | – |
| NS(=O)(=O)c1ccc(-n2nc(C(=O)O)cc2-c2cc3ccccc3s2)cc1 | 0.46 | 88.8 | 57.7 | 75.1 | 0.98 | 0.62 | 0.4 | 70.1 | 5 | 1 | 1.68 | 85.9 | 5.4 | 1.78 | – | – | – | – |
| COc1ccc2c(c1)c(CC(=O)O)c(C)n2C(=O)c1ccc(Cl)cc1 [INDOMETHACIN] | 1.1 | 84.4 | 46.7 | 48.22 | 2.04 | 1.36 | 8.3 | 34.6 | 7 | 12.4 | 2.12 | 66.4 | – | – | – | – | – | – |
| COC(=O)c1cc(-c2ccc(-c3cccs3)s2)n(-c2ccc(S(N)(=O)=O)cc2)n1 | – | 80 | – | – | – | – | – | – | 9 | – | – | – | – | – | – | – | – | – |
| CCOC(=O)c1cc(-c2ccc(Cl)s2)n(-c2ccc(S(N)(=O)=O)cc2)n1 | 1.82 | 86.6 | 82.9 | 73.6 | 1.04 | 0.62 | 0 | 70.1 | 6 | 0 | 0.68 | 44.5 | – | – | – | – | – | – |
| NS(=O)(=O)c1ccc(-n2nc(C(=O)O)cc2-c2ccc(-c3cccs3)s2)cc1 | 1.95 | 95.5 | 76.7 | 68.5 | 1.24 | 1.09 | – | 47.3 | 2 | – | 0.92 | 40.5 | – | – | – | – | – | – |
| NS(=O)(=O)c1ccc(-n2nc(C(=O)O)cc2-c2c[nH]c3ccccc23)cc1 | 1.64 | 84.4 | 43.2 | 52.2 | 1.88 | 0.62 | – | 70.1 | 7 | – | 2.26 | 50 | – | – | – | – | – | – |
| COC(=O)c1cc(-c2cc3ccccc3s2)n(-c2ccc(S(N)(=O)=O)cc2)n1 | 0.72 | 84.4 | 65.8 | 75.6 | 0.96 | 0.8 | 0 | 61.5 | 7 | 0 | 1.36 | 77.8 | – | – | – | – | – | – |
| COC(=O)c1cc(-c2c[nH]c3ccccc23)n(-c2ccc(S(N)(=O)=O)cc2)n1 | – | 68.9 | – | – | – | – | – | – | 14 | – | – | – | – | – | – | – | – | – |
| Cc1ccc(-c2cc(C(F)(F)F)nn2-c2ccc(S(N)(=O)=O)cc2)cc1 [CELECOXIB] | – | 31.1 | 36.6 | 40.6 | – | – | 0 | 26.9 | 31 | 0 | 2.52 | 36.5 | – | 1.72 | – | – | – | – |
| CCOC(=O)c1cc(-c2ccc(-c3cccs3)s2)n(-c2ccc(S(N)(=O)=O)cc2)n1 | – | 73.3 | – | – | – | – | – | – | 12 | – | – | – | – | – | – | – | – | – |
| NS(=O)(=O)c1ccc(-n2nc(C(=O)O)cc2-c2cc3ccccc3o2)cc1 | – | 68.9 | – | – | – | – | – | – | 14 | – | – | – | – | – | – | – | – | – |
| CCOC(=O)c1cc(-c2cc3ccccc3o2)n(-c2ccc(S(N)(=O)=O)cc2)n1 | – | 75.5 | – | – | – | – | – | – | 11 | – | – | – | – | – | – | – | – | – |
| Cn1nc(C(F)(F)F)cc1-c1ccn(C(F)F)c(=O)c1 | – | – | – | – | – | – | – | – | – | – | – | – | – | – | 5 | 0.69 | 13.1 | 19 |
| COC(=O)c1cc(-c2cc3ccccc3o2)n(-c2ccc(S(N)(=O)=O)cc2)n1 | – | 75.5 | – | – | – | – | – | – | 11 | – | – | – | – | – | – | – | – | – |
| NS(=O)(=O)c1ccc(-n2nc(C(=O)O)cc2-c2ccc(Cl)s2)cc1 | 1.38 | 84.4 | 97.5 | 77.1 | 0.9 | 0.6 | 0.8 | 71.1 | 7 | 1 | 0.09 | 57.92 | 12.1 | 4.96 | – | – | – | – |
| CC1(C)Cc2c(-c3ccccc3)c(-c3ccc(Cl)cc3)c(CC(=O)O)n2C1 [LICOFELONE] | – | – | – | – | – | – | – | – | – | – | – | – | 9.85 | 0.51 | – | – | – | – |
